Source: patent US7875607B2, “7,8-bicycloakyl-chroman derivatives” (Ampere Life Sciences, Inc., priority 2004, dated 2011)

Tests used:
[1] = system: dopaminergic neuronal cell line; assay: High glutamate-induced oxidative stress assay (HGOS); format: cell-based; settings: Mus musculus; 30 mM glutamate, 16 hrs; read-out: EC50, protection against HGOS cell injury and cell death
Source text: Protection against redox stress can be further evaluated in cell culture using high glutamate induced oxidative stress (HGOS) in mouse dopaminergic cell lines. The cytotoxic effect of glutamate is not due to excitotoxicity, as this cell line is devoid of inotropic glutamate receptors. Rather, the glutamate-induced toxicity of dopaminergic cells is associated with an inhibition of cystine transport which subsequently leads to depletion of intracellular glutathione (GSH) levels (Murphy T. H., et al. Neuron 2, 1547-1558, 1989), activation of neuronal 12-lipoxygenase (Li, Y. et al., Neuron 19, 453-463, 1997), increased ROS production (Tan S. et al., J. Cell Biol. 141, 1423-1432, 1998) and elevated intracellular Ca^2+ (Li, Y. et al., see supra). Some molecules were measured for their ability to protect cells against glutamate-induced stress and the assay is detailed in Examples.
This procedure was used to induce high glutamate-induced oxidative stress (HGOS) in a dopaminergic neuronal cell line. Using this assay the potency and efficacy of test articles against HGOS neuronal cell injury and cell death was established in a high throughput manner.
The cells were seeded into 96-well plates at a density of 2000 per well and left to grow for 72 hours in a 33° C. incubator with 5% CO2 in air atmosphere. The passage number of the cells for each assay experiment were no later than p11 in order to minimize experimental variation.
All compounds were dissolved in DMEM-No Glu containing 1 mM glucose, 30 mM glutamate and 1×Pen/Strep. DMEM-No Glu with 1 mM glucose and 1×P/S was used as the negative control, DMEM-No Glucose with 1 mM glucose, […] was used as a positive control and 100 μM Glutathione was added to the positive control as a standard. All of the procedures for this involving the making and dilution of compounds were performed using aseptic conditions and with minimal light.
The plates were removed from the incubator and examined under the microscope for morphological appearance and density. Using an aseptic technique and an 8-channel aspirator the media was carefully removed from the cells and replaced with 200 μl of 1×HBSS. This was done as quickly as possible to prevent the cells drying out. The plates were then placed in the humidified 37° C. incubators of the Biomek 2000 Side Loader. Four plates were washed at a time so as to minimize the time that the cells were sitting in 1×HBSS prior to addition of the compound test solution.
The Beckman Biomek workstations were used to load the compounds and controls from the mother plates onto the cell plates that were prewashed with HBSS under sterile conditions. The plates were incubated in the upper HTS incubator at 37° C. in 5% CO2 for exactly 16 hrs. The following day, using the Beckman Biomek workstations, the plates were removed from the incubator. Using Cell Tracker Addition, the compounds were removed from the plates, washed once with […] of pre-warmed 1×HBSS and then 100 μL of 5 μM Cell Tracker Green was added to each well. The plates were incubated at 37° C. for 30 min to allow the dye to enter the cell and be cleaved by the esterases. After washing the cells twice with prewarmed 1×HBSS, the plates were read with the 485 excitation; 538 emission filter pair on a Fluoroskan.

[2] = system: LTB4 production in heparinized whole blood; assay: Inhibition of LTB4 production in blood; format: cell-based, rat or mouse; settings: 20 μM A23187, read-out: EC50, protection against LTB4
Protocol: The blood was collected in heparinized tubes or syringes to prevent clotting. Heparin was at 20 USP U/ml. About 3-5 ml of blood was collected per rat and about 0.5-0.75 ml per mouse. This assay required 200 μl/data point, therefore a 96 well plate requires 20 ml.
The Calcium ionophore A23187 was prepared as a 10 mM stock solution in DMSO and the test agent is prepared in DMSO so that <1 μl DMSO will be added to the well
200 μl blood per well were added in a round bottom 96 well clear plastic 96 well plate followed by the test agent. After 10 minutes incubation at 37° C., 5 μl of Calcium ionophore A23187 for a final concentration of 20 μM were added and mixed, and further incubated for 30 min. After 1000×g centrifugation to pellet blood cells, 20 μl plasma was carefully removed.
20 μl plasma were added to 80 μl methanol to precipitate protein and mixed. This was further incubated 10 min. at room temperature and centrifuged at 1000×g to pellet protein.
Following manufacturer's instructions, the commercially available EIA kit was used to subsequently measure the LTB4 production in the samples. The LTB4 levels produced in the vehicle control sample were then compared to those in which the test compound had been added. From this a percent inhibition of LTB4 production by each concentration of test compound was calculated and the IC50 for inhibition of LTB4 production for each test compound was determined.

[3] = biological target: T1, human recombinant 5-lipoxygenase (Homo sapiens, UniProt P09917); assay: 5-Lipoxygenase enzyme assay; format: biochemical; settings: 70 μM arachidonic acid, pH 7.4
T1 construct: purchased Cayman 60402
T1 sequence (P09917 1-674): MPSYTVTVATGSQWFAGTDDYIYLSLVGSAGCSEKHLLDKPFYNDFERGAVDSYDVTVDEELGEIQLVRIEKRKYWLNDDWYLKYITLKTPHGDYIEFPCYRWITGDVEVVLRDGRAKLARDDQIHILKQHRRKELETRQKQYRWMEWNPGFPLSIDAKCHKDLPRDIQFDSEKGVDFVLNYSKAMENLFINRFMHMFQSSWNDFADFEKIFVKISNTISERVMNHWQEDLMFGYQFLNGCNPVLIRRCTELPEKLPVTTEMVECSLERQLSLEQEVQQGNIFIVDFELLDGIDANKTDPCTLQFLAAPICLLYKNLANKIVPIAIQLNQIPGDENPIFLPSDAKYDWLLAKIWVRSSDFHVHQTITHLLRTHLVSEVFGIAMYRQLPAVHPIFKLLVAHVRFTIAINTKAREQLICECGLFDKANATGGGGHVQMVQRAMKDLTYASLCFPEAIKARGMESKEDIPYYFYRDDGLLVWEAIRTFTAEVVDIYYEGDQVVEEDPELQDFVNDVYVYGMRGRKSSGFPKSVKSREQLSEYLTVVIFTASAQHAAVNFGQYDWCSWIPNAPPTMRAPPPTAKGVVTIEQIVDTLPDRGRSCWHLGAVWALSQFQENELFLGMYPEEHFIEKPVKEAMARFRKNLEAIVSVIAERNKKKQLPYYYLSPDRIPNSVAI
Protocol: This procedure was used for measuring the enzymatic activity of human recombinant 5-lipoxygenase using a […] method based on the ferric oxidation of xylenol orange.
Human recombinant 5-lipoxygenase (Cayman Cat # 60402) was used in this assay. The test compound and/or vehicle was added to 0.5U 5-lipoxygenase in 50 mM Tris-HCl buffer, pH 7.4. The reaction was initiated by addition of 70 μM arachidonic acid in Tris-HCl buffer, pH 7.4, and terminated after a 10 minute incubation at room temperature by addition of FOX reagent (25 mM sulphuric acid, 100 μM xylenol orange, 100 μM iron (II) sulphate, methanol:water 9:1). The yellow color of acidified xylenol orange was converted to a blue color by the lipid hydroperoxide-mediated oxidation of Fe^2+ ions and the interaction of the resulting Fe^3+ ions with the dye. The complex was allowed to form during a 1 hour incubation at room temperature with shaking. Absorbance of the Fe^3+ complex was then measured at […] using a spectrophotometer.
Negative controls contained enzyme during the incubation step but substrate was not added until after the FOX reagent.
Compounds were screened at 5 concentrations in triplicate starting at 10 μM

[4] = system: LTB4 release from MPRO cell line; assay: LTB4-cell assay; format: cell-based; settings: Mus musculus; differentiated MPRO cells, 1 μM A23187, 1 hour; read-out: EC50, inhibition of LTB4
Protocol: This procedure was used for measuring the release of the leukotriene LTB4 from a neutrophil cell line using a competitive ELISA technique.
A mouse promyelocytic cell line (MPRO) was used in this assay. These cells are committed immature neutrophils that can be differentiated into mature neutrophils by treatment with 10 μM all-trans retinoic acid for 72 hours
Following 72 hours of differentiation, cells were stimulated with 1 μM of a calcium ionophore (A23187) in the presence or absence of test compound or vehicle for 1 hour at 37° C. After this time, supernatant was removed from the cells and the LTB4 levels were determined following manufacturer's instructions, using a Leukotriene B4 EIA kit from Cayman (Cat # 520111)
The negative controls were media samples from differentiated but unstimulated cells.
The compounds were screened at 5 concentrations in quadruplicate starting at 10 μM

SMILES	EC50 [1] [nM]	also measured
CC(C)=CCc1c(O)c2c(c3c1CCC(C)(C)O3)C1CCC2CC1 [2,2-Dimethyl-5-(3-methyl-but-2-enyl)-3,4,7,8,9,10-hexahydro-7,10-ethano-2H-benzo[h]chromen-6-ol]	≤ 1000	
CC(C)=CCc1c(O)c2c(c3c1C=CC(C)(C)O3)C1CCC2C1 (stereo not drawn) [2,2-Dimethyl-5-(3-methyl-but-2-enyl)-7,8,9,10-tetrahydro-7,10-methano-2H-benzo[h]chromen-6-ol]	≤ 1000	
Cc1c(O)c2c(c3c1CCC(C)(CCCCl)O3)C1CCC2CC1 (stereo not drawn) [2-(3-Chloro-propyl)-2,5-dimethyl-3,4,7,8,9,10-hexahydro-7,10-ethano-2H-benzo[h]chromen-6-ol]	≤ 1000	EC50 [2]: ≤ 10 µM; IC50 [3]: ≤ 5 µM
CC1(CCCSc2nc3ccccc3s2)CCc2cc(O)c3c(c2O1)C1CCC3CC1 (stereo not drawn) [2-[3-(Benzothiazol-2-ylsulfanyl)-propyl]-2-methyl-3,4,7,8,9,10-hexahydro-7,10-ethano-2H-benzo[h]chromen-6-ol]	≤ 1000	
CC1(CCC(=O)OCc2ccccc2)CCc2cc(O)c3c(c2O1)C1CCC3CC1 (stereo not drawn) [3-(6-Hydroxy-2-methyl-3,4,7,8,9,10-hexahydro-7,10-ethano-2H-benzo[h]chromen-2-yl)-propionic acid benzyl ester]		IC50 [3]: ≤ 5 µM
COC(=O)CCC1(C)CCc2cc(O)c3c(c2O1)C1CCC3CC1 (stereo not drawn) [3-(6-Hydroxy-2-methyl-3,4,7,8,9,10-hexahydro-7,10-ethano-2H-benzo[h]chromen-2-yl)-propionic acid methyl ester]		IC50 [3]: ≤ 5 µM
COC(=O)CCC1(C)CCc2cc(O)c3c(c2O1)C1CCCC3CC1 (stereo not drawn) [3-(6-Hydroxy-2-methyl-3,4,7,8,9,10-hexahydro-7,10-propano-2H-benzo[h]chromen-2-yl)-propionic Acid Methyl Ester]	≤ 1000	IC50 [3]: ≤ 5 µM
CCCC1=NN(C)C(=O)/C1=C\c1c(O)c2c(c3c1CCC(C)(C)O3)C1CCC2C1 (stereo not drawn) [4-(6-Hydroxy-2,2-dimethyl-3,4,7,8,9,10-hexahydro-7,10-methano-2H-benzo[h]chromen-5-ylmethylene)-2-methyl-5-propyl-2,4-dihydro-pyrazol-3-one]	≤ 1000	EC50 [2]: ≤ 10 µM
CC1=NN(c2ccc(C(=O)O)cc2)C(=O)C1=Cc1c(O)c2c(c3c1CCC(C)(C)O3)C1CCC2C1 (stereo not drawn) [4-[4-(6-Hydroxy-2,2-dimethyl-3,4,7,8,9,10-hexahydro-7,10-methano-2H-benzo[h]chromen-5-ylmethylene)-3-methyl-5-oxo-4,5-dihydro-pyrazol-1-yl]-benzoic acid]	≤ 1000	
CC1(C)CCc2c(CC=C3CCCCC3)c(O)c3c(c2O1)C1CCC3CC1 [5-(2-Cyclohexylidene-ethyl)-2,2-dimethyl-3,4,7,8,9,10-hexahydro-7,10-ethano-2H-benzo[h]chromen-6-ol]	≤ 1000	
CC1(C)CCc2c(C=C3C(=O)Oc4ccc(O)cc43)c(O)c3c(c2O1)C1CCC3C1 (stereo not drawn) [5-Hydroxy-3-(6-hydroxy-2,2-dimethyl-3,4,7,8,9,10-hexahydro-7,10-methano-2H-benzo[h]chromen-5-ylmethylene)-3H-benzofuran-2-one]	≤ 1000	
CC1(C)CCc2c(CO)c(O)c3c(c2O1)C1CCC3C1 (stereo not drawn) [5-Hydroxymethyl-2,2-dimethyl-3,4,7,8,9,10-hexahydro-7,10-methano-2H-benzo[h]chromen-6-ol]	≤ 1000	
COC12CCC(CC1)c1c(O)cc3c(c12)OC(C)(C)CC3 [10-Methoxy-2,2-dimethyl-3,4,7,8,9,10-hexahydro-7,10-ethano-2H-benzo[h]chromen-6-ol]		IC50 [3]: ≤ 5 µM
CC(=O)Oc1c(CC=C(C)C)c2c(c3c1C1CCC3C1)OC(C)(C)C=C2 (stereo not drawn) [Acetic acid 2,2-dimethyl-5-(3-methyl-but-2-enyl)-7,8,9,10-tetrahydro-7,10-methano-2H-benzo[h]chromen-6-yl ester]	≤ 1000	
CC(=O)Oc1c(CCC(C)C)c2c(c3c1C1CCC3C1)OC(C)(C)CC2 (stereo not drawn) [Acetic acid 2,2-dimethyl-5-(3-methyl-butyl)-3,4,7,8,9,10-hexahydro-7,10-methano-2H-benzo[h]chromen-6-yl ester]	≤ 1000	
CN(C)CC(=O)Oc1cc2c(c3c1C1CCC3CC1)OC(C)(C)CC2 [Dimethylamino-acetic acid 2,2-dimethyl-3,4,7,8,9,10-hexahydro-7,10-ethano-2H-benzo[h]chromen-6-yl ester]		EC50 [4]: ≤ 5 µM
COP(=O)(CCCC1(C)CCc2cc(O)c3c(c2O1)C1CCC3C1)OC (stereo not drawn) [[3-(6-Hydroxy-2-methyl-3,4,7,8,9,10-hexahydro-7,10-methano-2H-benzo[h]chromen-2-yl)-propyl]-phosphonic Acid Dimethyl Ester]		EC50 [2]: ≤ 10 µM
